For test [1], the target named is T1, NEP (membranes from rat kidney cortex) (Rattus norvegicus, UniProt P07861).
T1 construct: from tissue; host or cells: kidney cortex membranes of male Sprague-Dawley rats
T1 sequence (P07861 1-750): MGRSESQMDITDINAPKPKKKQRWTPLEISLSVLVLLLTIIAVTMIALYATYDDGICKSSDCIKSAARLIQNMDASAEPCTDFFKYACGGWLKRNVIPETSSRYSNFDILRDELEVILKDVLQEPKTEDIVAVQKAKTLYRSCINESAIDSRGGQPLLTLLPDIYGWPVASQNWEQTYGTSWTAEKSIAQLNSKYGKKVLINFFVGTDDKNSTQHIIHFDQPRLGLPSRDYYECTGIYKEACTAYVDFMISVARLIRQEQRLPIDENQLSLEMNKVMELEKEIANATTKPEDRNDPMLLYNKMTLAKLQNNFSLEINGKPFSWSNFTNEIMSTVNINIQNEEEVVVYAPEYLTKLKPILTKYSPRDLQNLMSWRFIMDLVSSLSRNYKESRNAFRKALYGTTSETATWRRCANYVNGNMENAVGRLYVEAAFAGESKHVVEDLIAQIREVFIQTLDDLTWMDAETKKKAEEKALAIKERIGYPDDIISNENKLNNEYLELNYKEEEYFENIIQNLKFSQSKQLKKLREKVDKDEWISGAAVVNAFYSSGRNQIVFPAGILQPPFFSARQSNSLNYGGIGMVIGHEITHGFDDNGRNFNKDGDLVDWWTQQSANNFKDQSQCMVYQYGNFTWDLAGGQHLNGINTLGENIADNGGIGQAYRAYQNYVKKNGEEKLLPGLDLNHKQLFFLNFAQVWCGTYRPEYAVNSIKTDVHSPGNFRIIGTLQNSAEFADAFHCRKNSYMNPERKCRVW
As to the kind of experiment: In vitro NEP-inhibitory activity in rat kidney cortex membranes ([3H][Leu5]-enkephaline substrate). It is filed as biochemical, male Sprague-Dawley rats. The conditions noted are these: for IC50: 20 minutes at 30° C., [3H][Leu5]-enkephaline 15 nM. As to the method: a) NEP-inhibitory activity
The NEP-inhibitory activity was evaluated in membranes from rat kidney cortex prepared according to the procedure described by T. Maeda et al. in Biochim. Biophys. Acta 1983, 731(1), 115-120.
By working at 0°-4° C., kidneys were removed from male Sprague-Dawley rats weighing approximately 300 g.
Cortex was carefully dissected, finely minced and suspended in a homogenization buffer (10 mM sodium phosphate pH 7.4 containing 1 mM MgCl2, 30 mM NaCl, 0.02% NaN3) 1:15 weight/volume.
The tissue was then homogenized for 30 seconds using an Ultra-Turrax homogenizer.
Approximately 10 ml of homogenate were layered over 10 ml of sucrose (41% weight/volume) and centrifuged at 31200 rpm for 30 minutes at 4° C. in a fixed angle rotor. The membranes were collected from the buffer/sucrose interface, washed twice with 50 mM TRIS/HCl buffer (pH 7.4) and resuspended into the same buffer for storage.
The membranes were stored in small aliquots at -80° C. until use.
The NEP-inhibitory activity was evaluated according to the method described by C. Llorens et al., in Eur. J. Pharmacol., 69, (1981), 113-116, as reported hereinafter.
Aliquots of the membrane suspension prepared as above described (concentration 5 μg/ml of proteins) were preincubated in the presence of an aminopeptidase inhibitory (Bestatin--1 mM) for 10 minutes at 30° C.
[^3 H][Leu^5 ]-enkephaline (15 nM) and buffer TRIS/HCl pH 7.4 (50 mM) were added in order to obtain a final volume of 100 μl.
Incubation (20 minutes at 30° C.) was stopped by adding HCl 0.1M (100 μl).
The formation of the metabolite [^3 H]Tyr-Gly-Gly was quantified by chromatography on polystyrene columns (Porapak Q).

Test [2] addresses T2, ACE (purified by lung rabbit, EC 3.4.15.1) (Oryctolagus cuniculus, UniProt P12822).
T2 construct: purchased SIGMA; host or cells: rabbit lung
T2 sequence (P12822 34-1310): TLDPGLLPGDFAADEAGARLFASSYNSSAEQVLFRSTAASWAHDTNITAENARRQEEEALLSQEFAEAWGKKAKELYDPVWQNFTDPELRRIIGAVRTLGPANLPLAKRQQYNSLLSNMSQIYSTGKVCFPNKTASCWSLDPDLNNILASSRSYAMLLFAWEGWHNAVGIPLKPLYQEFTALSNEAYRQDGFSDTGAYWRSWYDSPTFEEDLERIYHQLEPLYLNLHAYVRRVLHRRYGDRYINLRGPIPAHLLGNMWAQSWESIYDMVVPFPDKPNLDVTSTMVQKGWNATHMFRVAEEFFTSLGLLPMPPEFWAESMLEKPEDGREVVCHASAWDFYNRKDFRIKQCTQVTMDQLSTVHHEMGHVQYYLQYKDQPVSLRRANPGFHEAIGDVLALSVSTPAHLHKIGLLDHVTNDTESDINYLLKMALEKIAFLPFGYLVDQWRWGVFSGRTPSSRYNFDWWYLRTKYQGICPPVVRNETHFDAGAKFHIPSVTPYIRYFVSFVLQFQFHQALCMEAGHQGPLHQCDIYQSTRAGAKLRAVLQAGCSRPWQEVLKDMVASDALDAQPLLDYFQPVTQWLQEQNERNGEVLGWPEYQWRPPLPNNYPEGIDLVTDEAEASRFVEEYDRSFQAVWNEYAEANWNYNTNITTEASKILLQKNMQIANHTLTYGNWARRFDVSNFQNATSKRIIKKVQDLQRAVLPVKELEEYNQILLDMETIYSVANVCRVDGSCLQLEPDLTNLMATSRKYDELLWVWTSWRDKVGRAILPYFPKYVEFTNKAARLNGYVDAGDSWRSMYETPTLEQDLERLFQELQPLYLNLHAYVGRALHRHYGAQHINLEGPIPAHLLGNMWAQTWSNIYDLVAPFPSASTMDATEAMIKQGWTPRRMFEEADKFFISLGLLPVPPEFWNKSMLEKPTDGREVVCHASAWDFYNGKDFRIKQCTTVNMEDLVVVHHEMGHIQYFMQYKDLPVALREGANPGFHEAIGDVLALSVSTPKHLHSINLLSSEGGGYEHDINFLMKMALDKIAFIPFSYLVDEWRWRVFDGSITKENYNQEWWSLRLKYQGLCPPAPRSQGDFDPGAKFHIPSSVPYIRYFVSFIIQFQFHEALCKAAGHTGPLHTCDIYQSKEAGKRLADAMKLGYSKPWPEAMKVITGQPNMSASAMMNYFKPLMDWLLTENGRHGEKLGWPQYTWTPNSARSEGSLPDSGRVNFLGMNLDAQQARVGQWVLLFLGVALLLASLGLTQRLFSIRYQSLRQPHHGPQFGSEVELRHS
As to the kind of experiment: In vitro ACE-inhibitory activity (FAPGG substrate, spectrophotometric). It is filed as biochemical. As to conditions: 37° C.; FAPGG 0.8 mM. As to the method:
b) ACE-inhibitory activity
The ACE-inhibitory activity was evaluated according to the method reported in the literature by B. Holmquist et al., in Analytical Biochemistry 95, 540-548 (1979).
[…] of ACE (250 mU/ml purified by lung rabbit, EC 3.4.15.1 SIGMA) were preincubated with 50 μl of the compound of formula I or of the comparison compound in thermostated cuvettes at 37° C.
The reaction was started by adding furylacryloylphenylalanylglycylglycine 0.8 mM (FAPGG-SIGMA).
Contemporaneously, by using a Beckman DU-50 spectrophotometer provided with a program for calculating delta A/minutes and regression coefficients of the enzyme kinetics curves, the absorbance at 340 nm was recorded in continuo for 5 minutes.
The percentage of the enzyme inhibition in the preparations treated with the compounds of formula I or with the comparative compounds with respect to the untreated preparations was expressed as IC50 (nM) value.

The subject of a further test is ACE/NEP. In words: Ex vivo mixed/dual ACE/NEP-inhibitory activity (lung and kidney of SHR taken together). It is filed as in vivo, spontaneously hypertensive rats (SHR). As to conditions: intravenous or oral. As to the method: The ex vivo ACE/NEP-inhibitory activity of the compounds of formula I, in particular, was evaluated by considering the enzymatic activity in tissue homogenates (lung and kidney for the ACE- and NEP-inhibitory activity, respectively) from spontaneously hypertensive rats (SHR), treated with the tested compounds by intravenous or oral route.
The inhibitory activity of the compounds of formula I was evaluated in kidneys of spontaneously hypertensive rats (SHR), 5 minutes after i.v. injection (0.6, 0.64 and 21 μmoles/kg) and 30 minutes, 60 minutes and 4 hours after oral administration (30 μmoles/kg) of the tested compounds.
The inhibitory activity of the compounds of formula I was evaluated in lungs of spontaneously hypertensive rats (SHR), 5 minutes after i.v. injection (0.6, 0.64 and 21 μmoles/kg) and 30 minutes, 60 minutes and 4 hours after oral administration (30 μmoles/kg) of the tested compounds.
As an example, the percentages of basal enzymatic activity obtained in the ex vivo tests after the administration of compounds 29 and 41, as representative compounds of formula I, and of the comparison compounds R-1, R-2, R-3 and R-4 are reported in the following table 2.

Structures can show the parent of a compound that is named as a salt.

A word on the IC50: it is the point on the concentration scale where inhibition reaches its midpoint. Lower therefore signals greater potency. With `O=C(N[C@@H](Cc1ccc(-c2ccccc2)cc1)C(=O)O)C(CS)Cc1cccnc1` (single isomer, unassigned) [compound 51, N-[2-mercaptomethyl-3-(3-pyridyl)propionyl]-(1,1'-biphenyl-4-yl)-L-alanine hydrochloride], the results for the IC50 in test [1] and in test [2] were 13 nM and 2 nM, respectively.
For `Cc1cc(CC(CS)C(=O)N[C@@H](Cc2ccc(-c3ccccc3)cc2)C(=O)O)on1` (single isomer, unassigned) [compound 54, N-[2-mercaptomethyl-3-(3-methyl-5-isoxazolyl)propionyl]-(1,1'-biphenyl-4-yl)-L-alanine], in test [1] (concentration 10^-7 M), the “NEP-inhibitory activity % inhibition (10^-7 M)” value stood at 76%. In addition, the midpoint of inhibition in test [2], the IC50, lay at 11 nM.
Turning to `CC(C)C(CS)C(=O)N[C@@H](Cc1ccc(-c2ccccc2)cc1)C(=O)O` (stereo partly drawn) [compound 49, N-(2-isopropyl-3-mercaptopropionyl)-(1,1'-biphenyl-4-yl)-L-alanine], the concentration for half-maximal inhibition (IC50) amounted to 1.2 nM in test [1] and 3.8 nM in test [2].
Turning to `O=C(N[C@@H](Cc1ccc(-c2ccccc2)cc1)C(=O)O)C(CS)Cc1cccnc1` (single isomer, unassigned) [compound 50, N-[2-mercaptomethyl-3-(3-pyridyl)propionyl]-(1,1'-biphenyl-4-yl)-L-alanine hydrochloride], the IC50 is 2.9 nM in test [1] and 13 nM in test [2].
Turning to `CC(c1ccccc1)C(CS)C(=O)N[C@@H](C)C(=O)O` (stereo partly drawn) [RB 105, N-[2-(mercaptomethyl)-3-phenylbutanoyl]-L-alanine, reference compound], in the test on ACE/NEP, the “ex-vivo mixed/dual ACE/NEP-inhibitory activity, in words” value is recorded as “not confirmed by ex-vivo tests”. For the same compound, the IC50 was 24 nM in test [1] and 5 nM in test [2].
For the compound `O=C(N[C@@H](Cc1ccc(-c2ccccc2)cc1)C(=O)O)C(CS)Cc1ccco1` (stereo partly drawn) [compound 52, N-[3-(2-furyl)-2-(mercaptomethyl)propionyl]-(1,1'-biphenyl-4-yl)-L-alanine], the IC50 in test [1] stood at 3.7 nM; in test [2], 6 nM.
With `Cc1cc(CC(CS)C(=O)N[C@@H](Cc2ccc(-c3ccccc3)cc2)C(=O)O)on1` (single isomer, unassigned) [compound 53, N-[2-mercaptomethyl-3-(3-methyl-5-isoxazolyl)propionyl]-(1,1'-biphenyl-4-yl)-L-alanine], the inhibition at 0.1 µM in test [1] (read-out: NEP-inhibitory activity % inhibition (10^-7 M), concentration 10^-7 M) turned out to be 94%. This compound also yielded an IC50 in test [2] of 13 nM.
With `O=C(N[C@@H](Cc1ccc(-c2ccccc2)cc1)C(=O)O)[C@@H](CS)Cc1ccccc1` [compound 46, N-[(2S)-2-mercaptomethyl-3-phenylpropionyl]-(1,1'-biphenyl-4-yl)-L-alanine], the results for the IC50 in test [1] and in test [2] were 1.8 nM and 2.6 nM, respectively.

Source of the values: patent US5760241A, “Thiol derivatives with metallopeptidase inhibitory activity” (priority 1996, dated 1998).
